From PubChem BioAssay (NCI)
“And” between values parts separate entries of the source, which are not always exact repeats. Equal values may be shown once.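 Dose response: 5 concentrations. Exposure: 48 h. Format: 96-well plates. Endpoint: linear interpolation; highest concentration if not reached. The concentration for 50% growth inhibition is given as GI50. At the TGI there is no net growth.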

Tests used:
Experiment in all cases: NCI tumour cell line growth inhibition, 48 h
[1] = tested on: LXFL 529 NSCLC
[2] = tested on: M19-MEL melanoma
[3] = tested on: SNB-78 CNS
[4] = tested on: XF 498 CNS
[5] = tested on: MDA-N
[6] = tested on: DMS 114 small cell lung
[7] = tested on: DMS 273 small cell lung
[8] = tested on: HOP-18 NSCLC
[9] = tested on: RXF-631 renal
[10] = tested on: P388 leukemia
[11] = tested on: P388/ADR leukemia
[12] = tested on: SN12K1 renal

Row | Compound | TGI [1] | TGI [2] | TGI [3] | TGI [4] | TGI [5] | TGI [6] | TGI [7] | TGI [8] [µM] | other results
1 | O=C(OCc1nc2ccc(Br)cc2c(=O)n1-c1ccccc1)c1ccccc1O | > 100 µM | > 100 µM | > 100 µM | > 100 µM | – | – | – | – | –
2 | CN1c2ccccc2C(=O)Nc2cnc(Cl)nc21 | – | – | – | – | > 100 µM | – | – | – | –
3 | C=C(C)[C@]12CC(C)C34OC(/C=C\C=C\CCCCCCCCC)(O[C@@H]1[C@@H]3[C@@H]1O[C@]1(CO)[C@@H](O)[C@]1(O)C(=O)C(C)=C[C@@H]41)O2 (stereo not given in full) | – | – | – | – | 19 µM | – | – | – | GI50 [5]: 0.000167 µM
4 | CC(C)(C)NCCC(O)c1cc(C(F)(F)F)nc2c(C(F)(F)F)cccc12 (stereo not given) | – | – | – | – | 24 µM | – | – | – | –
5 | O=C1c2cccc3cccc(c23)C(=O)N1CCCN1CCN(CCCN2C(=O)c3cccc4cccc(c34)C2=O)CC1 | > 100 µM | > 100 µM | > 100 µM | > 100 µM | – | > 100 µM | > 100 µM | > 100 | TGI [9]: > 100 µM
6 | O=C1/C(=C/c2ccccc2)CN(C(=O)OCC(Cl)(Cl)Cl)C/C1=C\c1ccccc1 | 3.94 µM | 2.79 µM | 5.92 µM | – | – | 4.08 µM | 3.27 µM | 9.82 | –
7 | Cc1cccc(N2C(=O)/C(=C/c3ccc(N(CCC#N)CCC#N)cc3C)N=C2c2cc([N+](=O)[O-])ccc2Cl)c1 | > 100 µM | > 100 µM | – | – | – | > 100 µM | > 100 µM | > 100 | TGI [9]: > 100 µM
8 | O=[N+]([O-])O.[NH-]C1CCCCC1[NH-].[NH-]C1CCCCC1[NH-].[NH-]C1CCCCC1[NH-].[OH-].[OH-].[OH-].[Pt+4].[Pt+4].[Pt+4] (stereo not given) | – | – | – | – | 6.74 µM | – | – | – | GI50 [5]: 0.205 µM
9 | Cc1cccc(CC(C)(C)C)c1NC(=O)C(=O)C(C(=O)c1ccc2ccccc2c1)C1OC(=O)c2ccccc21 (stereo not given) | – | 64.1 µM | > 100 µM | – | – | 56.7 µM | – | – | –
10 | CCC1NCC(=O)c2c1[nH]c1ccccc21 (stereo not given) | > 100 µM | > 100 µM | > 100 µM | – | – | > 100 µM | > 100 µM | > 100 | –
11 | Cc1c(-c2coc(-c3ccc(Cl)cc3)n2)c(=O)n(-c2ccccc2)n1C | > 100 µM | > 100 µM | > 100 µM | > 100 µM | – | – | > 100 µM | – | –
12 | CCCCCCCCC(=O)NCCCNCCCNC(=O)CCCCCCCC | 7.79 µM | 8.38 µM | 26 µM | 9.22 µM | – | 8.79 µM | 6.03 µM | 26.6 | –
13 | Cc1ns/c(=N\C(=S)N(C)C)n1C | > 100 µM | – | > 100 µM | > 100 µM | – | > 100 µM | > 100 µM | > 100 | TGI [9]: > 100 µM
14 | COc1cc2c(c(OC)c1OC)-c1ccc(SC)c(=O)cc1[C@@H](NC(=O)c1ccc(C#N)cc1)CC2 | 18.3 µM | > 100 µM | 83.7 µM | – | – | < 0.01 µM | > 46.3 µM | – | –
15 | Cc1cc(N)c2ccccc2[n+]1CCCCCCCCCC[n+]1c(C)cc(N)c2ccccc21 | – | – | – | – | 6.08 µM and 6.72 µM | – | – | – | GI50 [5]: 2.13 µM
16 | CN1CC(C(=O)NC2(C)OC3(O)C4CCCN4C(=O)C(Cc4ccccc4)N3C2=O)C=C2c3cccc4[nH]cc(c34)CC21 (stereo not given) | – | – | – | – | 55.1 µM | – | – | – | –
17 | Cc1[nH]c(=O)nc(N/N=C/c2ccc(O)cc2)c1C(=O)Nc1ccc(Cl)cc1 | > 100 µM | > 100 µM | > 100 µM | – | – | > 100 µM | > 100 µM | > 100 | TGI [9]: > 100 µM

Row | Compound | TGI [1] | TGI [2] | TGI [3] | TGI [4] | TGI [5] | TGI [6] | TGI [7] | TGI [8] [µM] | other results
18 | O=C1c2ccccc2C(=O)c2c1ccc1c3ccccc3n(Cc3ccccc3)c21 | > 100 µM | > 100 µM | – | > 100 µM | – | > 100 µM | – | 0.0908 | –
19 | O=C1CC2Sc3ccccc3N=C2N1c1ccc(Cl)cc1Cl (stereo not given) | > 100 µM | > 100 µM | > 100 µM | > 100 µM | – | > 100 µM | – | > 100 | TGI [9]: > 100 µM
20 | CCOC(=O)NNC(=O)NC12CC3CC(CC(C3)C1)C2 | > 100 µM | > 100 µM | > 100 µM | > 100 µM | – | > 100 µM | > 100 µM | > 100 | –
21 | Clc1ccccc1C1=NN(c2ccccc2)C2c3cc(Br)ccc3OCC12 (stereo not given) | > 100 µM | > 100 µM | > 100 µM | > 100 µM | – | > 100 µM | > 100 µM | > 100 | –
22 | Fc1nc(F)nc(-c2c3ccccc3c3n2CCS3)n1 | > 100 µM | > 100 µM | > 100 µM | > 100 µM | – | > 100 µM | > 100 µM | – | –
23 | O=C(CC(C(=O)O)N1CCOCC1)c1ccccc1 (stereo not given) | – | – | – | – | 36.8 µM | – | – | – | –
24 | COc1cc(CC(=O)c2ccc3c(c2)OCO3)cc(OC)c1OC | > 100 µM | > 100 µM | > 100 µM | – | – | 92.7 µM | – | > 100 | TGI [9]: > 100 µM
25 | CC(C)=C1CCC(CN2CCCC2)C1=O (stereo not given) | 32.2 µM | 37.4 µM | > 100 µM | 34 µM | – | 37 µM | > 100 µM | 32.7 | TGI [9]: > 100 µM
26 | COc1cc2c(cc1OC)[C@H]1C(=O)c3cc4c(cc3[C@H]1N(C)C2=O)OCO4 | – | – | – | – | > 100 µM | – | – | – | –
27 | N#CC1(C#N)C2C=CC(C3CCC=C32)C1(C#N)C#N (stereo not given) | – | – | – | – | > 10 µM | – | – | – | –
28 | CCCCCCCCCCCCCCCC(=O)N[C@H]1CCc2cc(OC)c(OC)c(OC)c2-c2ccc(SC)c(=O)cc21 | 9.54 µM and 4.92 µM | 13.6 µM and 13.7 µM | 80 µM and 25.7 µM | 8.5 µM and 8.63 µM | – | – | – | 36.9 | GI50 [1]: 1.55 µM; GI50 [2]: 3.15 µM; GI50 [3]: 0.669 µM; GI50 [4]: 2.18 µM
29 | CCN1CC2(C)CC[C@@H](OC)C34[C@@H]2[C@H](OC(C)=O)C2(OCO[C@@]25C[C@H](OC)C2C[C@]3(O)[C@@H]5[C@H]2O)[C@H]14 | > 100 µM | > 100 µM | > 100 µM | – | – | > 100 µM | – | – | –
30 | O=C1/C(=C/c2ccccc2)CN(C(=O)Oc2ccc([N+](=O)[O-])cc2)C/C1=C\c1ccccc1 | 5.41 µM and 2.9 µM | 3.56 µM and 2.75 µM | 28.5 µM | – | – | 4.63 µM and 3.84 µM | 2.94 µM and 3.17 µM | – | GI50 [6]: 1.68 µM; GI50 [7]: 1.22 µM; GI50 [1]: 1.41 µM; GI50 [2]: 1.26 µM
31 | COc1ccccc1NC(=O)C(=O)C1C(=O)Nc2ccccc2S1=O (stereo not given) | > 100 µM | > 100 µM | > 100 µM | > 100 µM | – | > 100 µM | > 100 µM | > 100 | TGI [9]: > 100 µM
32 | O=C(Cc1nc2ccc([N+](=O)[O-])cc2[nH]c1=O)C(=O)Nc1cc(Cl)c(Cl)cc1Cl | – | – | – | – | > 100 µM | – | – | – | –
33 | COc1cc(C2c3cc4c(cc3[C@@H](Nc3cccc(O)c3)C3COC(=O)[C@H]23)OCO4)cc(OC)c1O (stereo not given in full) | 24.9 µM | 18.9 µM | 65.1 µM | 0.985 µM and 8.34 µM | 20.5 µM | 5.21 µM | 6 µM | 33 | GI50 [6]: 0.49 µM; GI50 [7]: 0.404 µM; GI50 [1]: 0.85 µM; GI50 [2]: 0.747 µM; TGI [10]: 0.507 µM; TGI [11]: 1.65 µM; TGI [12]: 7.81 µM; GI50 [3]: 0.906 µM; GI50 [4]: 0.52 µM
